From patent US8592405B2, “Synergistic antimicrobial composition” (Dow Global Technologies LLC, priority 2009, dated 2013)

Experiments:
Assay type in all cases: cell-based
Gleocapsa sp. (Gs) = test: Algal efficacy testing, modified ASTM 5589 (12-well, dry paint film); details: three weeks; for % inhibition: at the Total conc; for Total conc, ppm: total biocide in paint taken as minimum inhibitory concentration
Protocol: (§1) Samples of white acrylic latex paint free of biocides were prepared in 50 ml aliquots. Each biocide was post added to give the necessary active ingredient concentration in the paint. The total biocides concentrations tested were 750, 1500, 2500 and 5000 ppm. After biocides addition, each sample was hand mixed for a minimum of 30 sec, followed by a 3 min run on the paint shaker (RED DEVIL). Each of the paint samples as well as a control sample (containing no biocide) were used to prepare films on black plastic-vinyl chloride/acetate copolymer panels (LENETA, Mahwah, N.J.) using a 3 mil bird bar applicator. The panels were thoroughly dried for 5 days avoiding direct exposure to sunlight. Square discs (15 mm^2) were cut out from each panel and were used as the substrate for fungal and algal efficacy tests. This sample size allowed for an agar border when the sample disc was placed into the well of the test plate.
(§2) The appropriate media (BOLD'S 3N for Chlorophytes, BG-11 for Cyanobacteria, and PDA for fungi) were used to support microbial growth. The test plates were maintained at room temp (25° C.-26° C.), in a cycled light-dark environment, for 3 weeks for algae. Plates for fungal challenge tests were maintained at 30C for three weeks. At the end of incubation period the samples were scored for percent area covered by visible microbial growth.
ASTM 5589 is a standard accelerated test method for determining resistance of various coatings (including paints) to algal defacement. To accommodate for high-throughput screening, this method was scaled down from petri plates to 12-well plates. A single coupon was placed with a pair of sterile forceps at the center of the agar plug (on top) with the painted surface facing upwards. Each well was inoculated with 150 μl of organism (1×10^8 cfu/ml) making sure that the whole surface (paint film as well as the agar surrounding it) was evenly covered. The plates were incubated at room temp (25° C.-26° C.) with cyclic exposure to light (OTT-Lite model #OTL4012P, 40 Watt, 26 KLumen) and dark phases, for a period of three weeks. The total area covered was evaluated at the end of each week according to percent area covered in 5% increments. While rating the plates, notations were made for zones of inhibition.
(§3) The SI is calculated based on F. C. Kull et.

Trichoderma viride (Tv) = test: Fungal efficacy testing, modified ASTM 5590 (12-well, dry paint film); details: three weeks; for % inhibition: at the Total conc; for Total conc, ppm: total biocide in paint taken as minimum inhibitory concentration, 30 C
Protocol: as §1, §2
(§4) ASTM 5590 is a standard accelerated test method for determining resistance of various coatings (including paints) to fungal defacement. To accommodate for high-throughput screening, this method was scaled down from petri plates to 12-well plates. To set up the test, an agar plug was placed at the bottom of each well of the sterile 12-well plate. A single coupon was placed with a pair of sterile forceps at the center of the agar plug (on top) with the painted surface facing upwards. Each well was inoculated with 150 μl of organism (1×10^6 cfu/ml) making sure that the whole surface (paint film as well as the agar surrounding it) was evenly covered. The plates were incubated at 30° C. in presence of moisture, for a period of three weeks. The total percent area covered was evaluated and recorded at the end of each week after the 2nd week and recorded in increments of 5%.
as §3

[1] = tested on: An + Pf (Aspergillus niger + Penicillium funiculosum); test: Fungal efficacy testing, modified ASTM 5590 (6-well, mixed inoculum, Example 4); details: four weeks; for Total conc, ppm: An + Pf mixed inoculum, NE = no end point at the concentration tested; for % inhibition: An + Pf, at the Total conc
Protocol: as §3
(§5) A single or blend of biocides was post added into white acrylic latex paint free of biocides to give a maximum total active ingredient/s concentration tested. This paint was then diluted with a biocide free acrylic latex paint at concentrations range of 75 to 12.5% w/w to give desired concentrations for the testing. Depending on the type of biocide blends tested, the total biocides concentrations varies from 200 to 5000 ppm. After biocides addition or dilution each sample was hand mixed for at least a minute until uniformity is achieved. Each of the paint samples as well as a control sample (containing no biocide) were used to prepare films on black plastic-vinyl chloride/acetate copolymer panels (LENETA, Mahwah, N.J.) using a 3 mil bird bar applicator. The panels were thoroughly dried for at least 2 days avoiding direct exposure to sunlight. Square discs (0.5 inch^2, 13 mm^2) were cut out from each panel and were used as the substrate for fungal and algal efficacy tests. This sample size allowed for an agar border when the sample disc was placed into the well of the test plate. Each sample was tested in duplicate
as §2, with “for four” for “for 3”, “at 30 C” for “at 30C”, “for four” for “for three”, “of the” for “of”
as §4, with “6-well” for “12-well”, “upwards. Fungal inoculums were prepared by mixing equal concentrations (1×10^6 cfu/ml) and equal volumes (depending on number of samples to be tested) of like growing organisms. Cladosporium herbarum was mixed with Aureobasidium pullulans. Aspergillus niger was mixed with Penicillium funiculosum. Alternaria alternata was mixed with Trichoderma viride.” for “upwards.”, “400” for “150”, “organism mixture” for “organism”, “four” for “three”

[2] = tested on: Ch + Tv (Cladosporium herbarum + Trichoderma viride); test: as above; details: four weeks
Protocol: [The source words this procedure for another target and reports this target under the same test.] as §3, §5
as §2, with “for four” for “for 3”, “at 30 C” for “at 30C”, “for four” for “for three”, “of the” for “of”
as §4, with “6-well” for “12-well”, “upwards. Fungal inoculums were prepared by mixing equal concentrations (1×10^6 cfu/ml) and equal volumes (depending on number of samples to be tested) of like growing organisms. Cladosporium herbarum was mixed with Aureobasidium pullulans. Aspergillus niger was mixed with Penicillium funiculosum. Alternaria alternata was mixed with Trichoderma viride.” for “upwards.”, “400” for “150”, “organism mixture” for “organism”, “four” for “three”

SMILES	% inhibition (Gleocapsa sp. (Gs)) [%]	Total conc, ppm (Gleocapsa sp. (Gs)) [ppm]	% inhibition (Trichoderma viride (Tv)) [%]	Total conc, ppm (Trichoderma viride (Tv)) [ppm]	Total conc, ppm [1] [ppm]	% inhibition [1] [%]	Total conc, ppm ([2]; Ch + Tv mixed inoculum, NE = no end point at the concentration tested) [ppm]	% inhibition ([2]; Ch + Tv, at the Total conc) [%]
CCCCCCCCn1sc(Cl)c(Cl)c1=O [DCOIT, 4,5-dichloro-2-n-octyl-4-isothiazolin-3-one]	77.5	2500	60	2500				
Cc1ccc(S(=O)(=O)C(I)I)cc1 [DIMTS, diiodomethyl-p-tolylsulfone]	80	2500	90	750	1250	100		
CN(C)C(=O)Nc1cccc(C(F)(F)F)c1 [Fluometuron, 1,1-dimethyl-3-(α,α,α-trifluoro-m-tolyl)urea]					5000	0	5000	0
